The source of these data is patent publication US20100105777A1, “AMIDE OR THIOAMIDE DERIVATIVES AND THEIR USE IN THE TREATMENT OF PAIN” (CARA THERAPEUTICS, INC., priority 2004, published 2010).

Each structure is given as a SMILES string. Some results are limits rather than exact numbers.

Common to all, as to type: in vivo
In assay [1] the test system is rat model of chronic pain (L5/L6 spinal nerve ligation). Briefly: L5/L6 nerve ligation injury, thermal hyperalgesia. The method, then:
(§1) Inflammatory (Formalin flinch test) and chronic pain (L5/L6 nerve ligation injury) models were used as assays in both rats and mice.
(§2) Nerve ligation injury was performed according to the method described previously (Kim and Chung). This methodology produces signs of tactile allodynia and thermal hyperalgesia. Rats were anesthetized with halothane and the L5 and L6 spinal nerves were exposed, carefully isolated, and tightly ligated with 4-0 silk suture distal to the dorsal root ganglia (DRG). After ensuring homeostatic stability the wounds were sutured, and the animals were allowed to recover in individual cages. Sham-operated rats were prepared in an identical fashion except that the L5 and L6 spinal nerves were not ligated. Compound 17 was tested in rats after L5/L6 nerve ligation. Compound administration was directly into the hind paw (i.paw) or into the peritoneal cavity (i.p.).

The test system is the same in assay [2]. Briefly: L5/L6 nerve ligation injury, tactile allodynia (von Frey). As to the method: as §1, §2
In the evaluation of the tactile allodynia, the paw withdrawal threshold was determined in response to probing with calibrated von Frey filaments. The rats were kept in suspended cages with wire mesh floors and the von Frey filaments were applied perpendicularly to the planar surface of the paw of the rat until it bent slightly, and was held for 3 to 6 s, or until the paw is withdrawn. […] The 50% paw withdrawal threshold was determined by the nonparametric method. […]

For assay [3], the system named is rat model of inflammatory pain (formalin-injected paw). Briefly: Formalin flinch test. Particulars: i.p. The method, then:
as §1
Animals are habituated to the their local environment for about 30 min prior to testing. The formalin test is carried out in a 30×30×30 cm chamber with the front and bottom of the chambers made of clear plexi-glass. Mirrors are placed at a 45° angle under the chambers in order to have an un-obstructive view of the paws. Animals are restrained manually and 2% formalin (aq) is injected subcutaneously into the planar surface of the left paw with a 30 gauge needle. The numbers of paw flinches are then recorded in 5 min intervals from the time of injection for a 60 min period. Elevations of the paw, licking and biting of the injected paw were counted as “flinches”. The […] or “first phase” of the nociceptive response peaked at 5 min after formalin injection and the inflammatory or “second phase” peaked at 30 min after formalin injection. The number of flinches in the first 10 min were representative of the […] phase and the number of flinches from 10 min until 60 min were representative of the inflammatory phase. Antinociception for both phase I and phase II was calculated as follows: […]
Potency (A50) is calculated from the full dose response curve for both phase I and phase II.

As to `NC(=O)CCCN(CCCC1CCCCC1)C(=O)Nc1ccccc1` [Compound 17, 4-[1-(3-cyclohexylpropyl)-3-phenylureido]butyramide], the “antihyperalgesic response to thermal testing” value in assay [1] (30 μg (in 50 μl) into the paw) turned out to be 100%. Moreover, the “A50 L5/L6 antihyperalgesia” value in assay [1] (i.paw) is listed as less than 30 μg/paw. In assay [2] (100 μg (in 50 μl) into the paw), this compound displayed an antiallodynic effect of 90%. Moreover, in assay [2] (i.paw), the “A50 L5/L6 antiallodynia” value is reported as less than 30 mg/paw. Further, the “A50 Formalin Phase I” value in assay [3] (phase I (first 10 min)) was less than 0.01 mg/kg. For the same compound, in assay [3] (phase II (10-60 min)), the “A50 Formalin Phase II” value worked out at 0.01 mg/kg.
